Results published in publication PMC8880129, “Plant- and Bacteria-Derived Compounds with Anti-Philasterides dicentrarchi Activity” (Pathogens, 2022).
Where “and” joins values, the source holds several entries; their conditions need not be identical. Equal entries are not always repeated. Where two headings read alike, the source gives them in different places.

Columns and labels:
[1] = test system: Philasterides dicentrarchi; assay: Anticiliate activity, ciliates maintained in seawater (LC100, LC50); assay type: cell-based; conditions: 3 h incubation
Experimental: All experiments were carried out in triplicate.

rainbow trout = test system: rainbow trout; parameters: method as in PMID 17979099; conditions: 100 to 2000 ppm in the diet for four weeks; cited from earlier work
Amyloodinium ocellatum = test system: Amyloodinium ocellatum; parameters: method as in PMID 32154278; conditions: 24 h incubation period; cited from earlier work
S. parasitica = test system: S. parasitica; parameters: method as in PMID 32154278; conditions: 0.1 mM; cited from earlier work
EPC cells = assay: Toxicity to EPC cell line, MTT assay; assay type: cell-based, fish; conditions: 24 h incubation, compound at its GI50 (24 h)
Experimental: (§1) We used the Epithelioma Papulosum Cyprini (EPC) cell line, acquired from the American Type Culture Collection (ATCC®, Manassas, VA, USA), as a control for toxicity. The cell line, kindly provided by Doctors Pereira-Dopazo and Bandin from the Aquaculture Institute of the University of Santiago de Coompostela, was cultured in MEM medium equilibrated with Hanks’ balanced salts (Gibco, Thermo Fischer Sci., Waltham, MA, USA) supplemented with 10% foetal bovine serum and 10 mL/L of 100X antibiotic–antimycotic solution. Cells were maintained subconfluent at 25 °C in a cell culture incubator and used when the confluence reached 75%.
(§2) Cell viability was then estimated by the MTT (3-(4,5-dimethylthiazol-2-yl)-2,5-diphenyl tetrazolium bromide) assay, as previously described, with minor modifications. Briefly, 100 μL of the MTT solution (1 mg/mL in phosphate-buffered saline; pH 7.2) was added to each well, and plates were incubated at 25 °C for 4 h. The yellow tetrazolium salt of MTT is reduced by mitochondrial dehydrogenases in metabolically active cells to form insoluble purple formazan crystals, which are then dissolved by the addition of DMSO (50 μL/well). Prior to the addition of MTT or DMSO, the plates were washed, and the supernatant was removed. The absorbance was measured at 540 nm in a microplate reader (Multiskan™, Thermo Fischer Sci., Waltham, MA, USA), and the relative cell viability was expressed as the mean percentage of viable cells relative to untreated cells.
(§3) In the viability assay, the possible effect of DMSO was evaluated for each compound by the inclusion of three replicate wells with MEM medium and the same DMSO concentration as in the medium. […] Control cells with only MEM were also included in the assay.

[2] = Toxicity to EPC cell line, MTT assay; assay type: cell-based, fish; conditions: fish, compound at its GI50 (24 h), MTT, read-out: EPC Cell Viability (%) Mean ± SD; for viability at 3 h: 3 h incubation; for viability at 24 h: 24 h incubation
Experimental: as §1, §2, §3

[3] = test system: Philasterides dicentrarchi; assay: microbe, parasite or virus in culture; conditions: for Ciliate Mortality 3 h (%) / parasites killed after 24 h: 100 μM, culture medium; for Ciliate Mortality 3 h (%): mean ± SD of three replicates; for mortality at 100 µM / GI50 / inhibition at 100 µM: Philasterides dicentrarchi; for Ciliate Mortality 3 h (%) / mortality at 100 µM: 3 h; for mortality at 100 µM: read-out: Ciliate Mortality 3 h (%), 100 μM, 3 h, culture medium, mean ± SD of three replicates; for inhibition at 100 µM: read-out: Growth Inhibition 24 h (%), 100 μM, 24 h, culture medium, mean ± SD of three replicates; for effect on the ciliate (lysis, movement): microscopy observation
Experimental: P. dicentrarchi (isolate I1), obtained from an outbreak of scuticociliatosis in cultured turbot in Galicia, was routinely cultured at 18 °C in complete sterile L15 medium (Leibovitz, PAA Laboratories GmbH, 1% salinity, pH 7.2) containing 90 mg/L each of adenosine, cytidine, and uridine, 150 mg/L of guanosine, 5 g/L of glucose, 400 mg/L of L-α-phosphatidylcholine, 200 mg/L of Tween 80, 10% of heat-inactivated foetal bovine serum (FBS), and 10 mL/L of 100X antibiotic–antimycotic solution (100 units/mL of penicillin G, 0.1 mg/mL of streptomycin sulphate and 0.25 mg/mL of amphotericin B), as previously described. Alternatively, ciliates were cultured in seawater with autoclaved marine bacteria (10^6 cells/mL) supplied as food at 21 °C. The ciliates were cultured under normoxic conditions in tissue culture flasks fitted with vented caps that enabled aeration of the culture medium.
We tested the toxicity to P. dicentrarchi of 26 compounds of natural origin (Table 1). The compounds were prepared in 10 mM stock solutions in dimethyl sulfoxide (DMSO) and maintained at −20 °C until use. In addition, the Pseudomonas H6 lipopeptide surfactant (PS) was prepared, lyophilised and stored at −20 °C [37]. A stock solution of PS was prepared in distilled water (1000 ppm) and diluted in culture medium or seawater at the final concentrations used in each assay and sterile filtered (through 0.2 µm filters) before being added to the parasites or EPC cells.
The anticiliate activity was assayed as previously described, with minor modifications. Ciliates were concentrated by centrifugation at 650× g for 5 min and resuspended in a medium at the concentration required for the assays. All experiments were carried out in triplicate. Wells containing ciliates in a culture medium or seawater without the test compounds were assayed as negative controls. To rule out any possible effects of the solvent (DMSO), triplicate wells with a culture medium or seawater containing the highest concentration of DMSO used (up to 1%) were also included. […] In these assays, the compounds were diluted in 1 mL of culture medium or seawater and added to the wells of 24-well sterile culture plates containing 2.5 × 10^4 ciliates per well, at final concentrations of […], 6.25, 12.5, 25, 50, and 100 µM in culture medium. The effects of the compounds on the motility and morphology of the ciliates were monitored periodically (at 30 min, 1, 2, 3, 24, and 48 h) under an inverted optical microscope. Ciliates were considered dead when they lysed and were not motile. The results obtained are expressed as percentage mortality for each experimental group. To estimate the total number of ciliates per well, the ciliates were inactivated by adding 0.25% glutaraldehyde and counted in a haemocytometer under an optical microscope. The lowest dose of the selected compounds resulting in 100% ciliate mortality (LC100) was assessed at 1, 2, and 3 h after incubation of parasites with sample dilutions (from 0 to 100 μg/mL, in 10 μg intervals). The concentration that inhibited 50% of ciliate growth (GI50), in comparison with the control group, was calculated with Excel software (Microsoft Office; Microsoft, Redmond, WA, USA) by plotting the dose-response data (log dose-per cent of growth inhibition) and applying linear regression (y = mx + b) for data fitting. The values were then calculated from the equation log GI50 = (50 − b)/m, where m is the slope y1 − y2/x1 − x2, and b is the intercept of the line.

Saprolegnia delica = test system: Saprolegnia delica; parameters: method as in PMID 32154278; conditions: 0.1 mM; cited from earlier work
goldfish = test system: goldfish; parameters: method as in doi:10.1016/j.aquaculture.2021.736372; conditions: cited from earlier work
Gyrodactylus kobayashii = test system: Gyrodactylus kobayashii; parameters: method as in doi:10.1016/j.aquaculture.2021.736372; conditions: exposure to 2.0 μg/mL; cited from earlier work
[4] = 24 h, read-out: GI50 24 h (compound concentration that inhibited 50% of parasite growth)
[5] = 48 h, read-out: GI50 48 h (compound concentration that inhibited 50% of parasite growth)

SMILES | LC100 (lowest concentration resulting in 100% ciliate mortality) [1] [µM] | toxic effects of administration in the diet (rainbow trout) | doses inhibiting dinospore motility (Amyloodinium ocellatum) | radial growth of S. parasitica (S. parasitica) | EPC cells killed (EPC cells) [%] | viability at 3 h [2] [%] | viability at 24 h [2] [%] | Ciliate Mortality 3 h (%) [3] [%] | parasites killed after 24 h ([3]; 24 h) | mortality at 100 µM [3] [%] | GI50 [3, 4] [µM] | inhibition at 100 µM ([3]; 24 h) [%] | GI50 [3, 5] [µM] | effect on the ciliate (lysis, movement) [3] | growth of Saprolegnia delica (Saprolegnia delica) | concentration toxic to goldfish (goldfish) | time to complete death of Gyrodactylus kobayashii (Gyrodactylus kobayashii) [min] | GI50 ([3]; 24 h, read-out: GI50 24 h expressed in μg/mL) [µg/mL]
C[C@H]1CC[C@]2(NC1)O[C@H]1C[C@H]3[C@@H]4CC[C@H]5C[C@@H](O[C@@H]6O[C@H](CO)[C@H](O[C@@H]7O[C@H](CO)[C@@H](O)[C@H](O[C@@H]8OC[C@@H](O)[C@H](O)[C@H]8O)[C@H]7O[C@@H]7O[C@H](CO)[C@@H](O)[C@H](O)[C@H]7O)[C@H](O)[C@H]6O)CC[C@]5(C)[C@H]4CC[C@]3(C)[C@H]1[C@@H]2C [Tomatine] | 10 | did not have toxic effects | 6.25–50 μg/mL and 0.006–0.05 mM | inhibited | 43 | 63 ± 6.82 | 57.6 ± 7.7 | 93.33 ± 2.31 | killed all the parasites | > 90 | 10.1 ± 1.27 | 100 | 8.51 ± 0.2 | very quick lysis of the ciliate | inhibited | – | – | –
CC1=CC(=O)c2c(O)cccc2C1=O [Plumbagin] | 30 | – | – | – | 26 | 78.7 ± 1.4 | 74.2 ± 3.94 | 100 | killed all the parasites | > 90 | 12.9 ± 1.16 | 100 | 9.65 ± 0.67 | inhibited the ciliate movement, but it did not cause cell lysis for several hours | inhibiting | higher than 0.5 mg/L | ≤ 45 | 2.42
